Experiments:
[1] = Selectivity index, ratio of CC50 for human HCT116 cells to MIC for active stage of Mycobacterium bovis BCG ATCC 35734; format: toxicity, cell-based, HCT-116; conditions: read-out: Selectivity Index
[2] = Selectivity index, ratio of CC50 for human PANC1 cells to MIC for active stage of Mycobacterium bovis BCG ATCC 35734; format: toxicity, cell-based, PANC-1; conditions: read-out: Selectivity Index
[3] = Selectivity index, ratio of CC50 for human HCT116 cells to MIC for dormant stage of Mycobacterium bovis BCG ATCC 35734; format: toxicity, cell-based, HCT-116; conditions: read-out: Selectivity Index
[4] = Selectivity index, ratio of CC50 for human HeLa cells to MIC for dormant stage of Mycobacterium bovis BCG ATCC 35734; format: toxicity, cell-based; conditions: read-out: Selectivity Index
[5] = Selectivity index, ratio of CC50 for human HeLa cells to MIC for active stage of Mycobacterium bovis BCG ATCC 35734; format: toxicity, cell-based; conditions: read-out: Selectivity Index
[6] = tested on: Mycobacterium tuberculosis; assay: Antimycobacterial activity against active stage of Mycobacterium tuberculosis H37Ra ATCC 25177 measured on day 8 by XTT reduction menadione assay; format: functional, organism-based; conditions: H37Ra ATCC 25177, 192 h
[7] = Selectivity index, ratio of CC50 for human THP1 cells to MIC for dormant stage of Mycobacterium bovis BCG ATCC 35734; format: toxicity, cell-based, THP-1; conditions: read-out: Selectivity Index
[8] = Selectivity index, ratio of CC50 for human THP1 cells to MIC for active stage of Mycobacterium bovis BCG ATCC 35734; format: toxicity, cell-based, THP-1; conditions: read-out: Selectivity Index
[9] = Cytotoxicity against human HeLa cells by MTT assay; format: cell-based
[10] = Selectivity index, ratio of CC50 for human PANC1 cells to MIC for dormant stage of Mycobacterium bovis BCG ATCC 35734; format: toxicity, cell-based, PANC-1; conditions: read-out: Selectivity Index
[11] = Cytotoxicity against human PANC1 cells by MTT assay; format: cell-based, PANC-1
[12] = Cytotoxicity against human HCT116 cells by MTT assay; format: cell-based, HCT-116
[13] = Cytotoxicity against human THP1 cells by MTT assay; format: cell-based, THP-1
[14] = tested on: Mycobacterium tuberculosis; assay: Antimycobacterial activity against dormant stage of Mycobacterium tuberculosis H37Ra ATCC 25177 measured on day 12 by XTT reduction menadione assay; format: functional, organism-based; conditions: H37Ra ATCC 25177, 288 h

## Cc1nc(-c2cccnc2)sc1-c1nnc(-c2ccccc2)o1
[1]
  selectivity ratio: 3
[2]
  selectivity ratio: 3
[3]
  selectivity ratio: 3
[4]
  selectivity ratio: 3
[5]
  selectivity ratio: 3
[6]
  IC50: > 30 mg/L
  MIC: > 30 mg/L
[7]
  selectivity ratio: 3
[8]
  selectivity ratio: 3
[9]
  CC50: > 100 mg/L
[10]
  selectivity ratio: 3
[11]
  CC50: > 100 mg/L
[12]
  CC50: > 100 mg/L
[13]
  CC50: > 100 mg/L
[14]
  IC50: > 30 mg/L
  MIC: > 30 mg/L

## Cc1nc(-c2cccnc2)sc1-c1nnc(-c2ccc(O)cc2)o1
[1]
  selectivity ratio: 3
[2]
  selectivity ratio: 3
[3]
  selectivity ratio: 3
[4]
  selectivity ratio: 3
[5]
  selectivity ratio: 3
[6]
  IC50: > 30 mg/L
  MIC: > 30 mg/L
[7]
  selectivity ratio: 3
[8]
  selectivity ratio: 3
[9]
  CC50: > 100 mg/L
[10]
  selectivity ratio: 3
[11]
  CC50: > 100 mg/L
[12]
  CC50: > 100 mg/L
[13]
  CC50: > 100 mg/L
[14]
  IC50: > 30 mg/L
  MIC: > 30 mg/L

## Cc1nc(-c2cccnc2)sc1-c1nnc(-c2ccc([N+](=O)[O-])cc2)o1
[1]
  selectivity ratio: 3
[2]
  selectivity ratio: 3
[3]
  selectivity ratio: 3
[4]
  selectivity ratio: 3
[5]
  selectivity ratio: 3
[6]
  IC50: > 30 mg/L
  MIC: > 30 mg/L
[7]
  selectivity ratio: 3
[8]
  selectivity ratio: 3
[9]
  CC50: > 100 mg/L
[10]
  selectivity ratio: 3
[11]
  CC50: > 100 mg/L
[12]
  CC50: > 100 mg/L
[13]
  CC50: > 100 mg/L
[14]
  IC50: > 30 mg/L
  MIC: > 30 mg/L

## Cc1nc(-c2cccnc2)sc1-c1nnc(-c2cccc(Cl)c2Cl)o1
[1]
  selectivity ratio: 3
[2]
  selectivity ratio: 3
[3]
  selectivity ratio: 3
[4]
  selectivity ratio: 3
[5]
  selectivity ratio: 3
[6]
  IC50: > 30 mg/L
  MIC: > 30 mg/L
[7]
  selectivity ratio: 3
[8]
  selectivity ratio: 3
[9]
  CC50: > 100 mg/L
[10]
  selectivity ratio: 3
[11]
  CC50: > 100 mg/L
[12]
  CC50: > 100 mg/L
[13]
  CC50: > 100 mg/L
[14]
  IC50: > 30 mg/L
  MIC: > 30 mg/L

## COc1ccccc1-c1nnc(-c2sc(-c3cccnc3)nc2C)o1
[1]
  selectivity ratio: 38
[2]
  selectivity ratio: 38
[3]
  selectivity ratio: 25
[4]
  selectivity ratio: 25
[5]
  selectivity ratio: 38
[6]
  IC50: > 30 mg/L
  MIC: > 30 mg/L
[7]
  selectivity ratio: 25
[8]
  selectivity ratio: 38
[9]
  CC50: > 100 mg/L
[10]
  selectivity ratio: 25
[11]
  CC50: > 100 mg/L
[12]
  CC50: > 100 mg/L
[13]
  CC50: > 100 mg/L
[14]
  IC50: > 30 mg/L
  MIC: > 30 mg/L

## Cc1ccc(-c2nnc(-c3sc(-c4cccnc4)nc3C)o2)cc1
[1]
  selectivity ratio: 3
[2]
  selectivity ratio: 3
[3]
  selectivity ratio: 3
[4]
  selectivity ratio: 3
[5]
  selectivity ratio: 3
[6]
  IC50: > 30 mg/L
  MIC: > 30 mg/L
[7]
  selectivity ratio: 3
[8]
  selectivity ratio: 3
[9]
  CC50: > 100 mg/L
[10]
  selectivity ratio: 3
[11]
  CC50: > 100 mg/L
[12]
  CC50: > 100 mg/L
[13]
  CC50: > 100 mg/L
[14]
  IC50: > 30 mg/L
  MIC: > 30 mg/L

## Cc1nc(-c2cccnc2)sc1-c1nnc(-c2ccncc2)o1
[1]
  selectivity ratio: 2
[2]
  selectivity ratio: 2
[3]
  selectivity ratio: 2
[4]
  selectivity ratio: 2
[5]
  selectivity ratio: 2
[6]
  IC50: > 30 mg/L
  MIC: > 30 mg/L
[7]
  selectivity ratio: 2
[8]
  selectivity ratio: 2
[9]
  CC50: > 100 mg/L
[10]
  selectivity ratio: 2
[11]
  CC50: > 100 mg/L
[12]
  CC50: > 100 mg/L
[13]
  CC50: > 100 mg/L
[14]
  IC50: > 30 mg/L
  MIC: > 30 mg/L

## Cc1ccccc1-c1nnc(-c2sc(-c3cccnc3)nc2C)o1
[1]
  selectivity ratio: 17
[2]
  selectivity ratio: 17
[3]
  selectivity ratio: 20
[4]
  selectivity ratio: 20
[5]
  selectivity ratio: 17
[6]
  IC50: > 30 mg/L
  MIC: > 30 mg/L
[7]
  selectivity ratio: 20
[8]
  selectivity ratio: 17
[9]
  CC50: > 100 mg/L
[10]
  selectivity ratio: 20
[11]
  CC50: > 100 mg/L
[12]
  CC50: > 100 mg/L
[13]
  CC50: > 100 mg/L
[14]
  IC50: > 30 mg/L
  MIC: > 30 mg/L

From ChEMBL document CHEMBL3822409, “Synthesis and antitubercular activity of new 1,3,4-oxadiazoles bearing pyridyl and thiazolyl scaffolds” (Bioorg Med Chem Lett, 2016)
